Data reported in PubChem BioAssay (NCI).
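Each compound was tested at five concentrations against cells in 96-well plates for 48 hours. TGI: total growth inhibition.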

Key:
Experiment in all cases: NCI tumour cell line growth inhibition, 48 h
HOP-18 NSCLC = tested on: HOP-18 NSCLC
MOLT-4 leukemia = tested on: MOLT-4 leukemia
A549 NSCLC = tested on: A549 NSCLC
UACC-257 melanoma = tested on: UACC-257 melanoma
P388 leukemia = tested on: P388 leukemia
NCI-H23 lung = tested on: NCI-H23 lung
SF-539 CNS = tested on: SF-539 CNS
SN12C renal = tested on: SN12C renal
SNB-78 CNS = tested on: SNB-78 CNS
ACHN renal = tested on: ACHN renal
MDA-MB-231 breast = tested on: MDA-MB-231 breast
T-47D breast = tested on: T-47D breast
NCI/ADR-RES ovarian = tested on: NCI/ADR-RES ovarian
UO-31 renal = tested on: UO-31 renal
BT-549 breast = tested on: BT-549 breast
PC-3 prostate = tested on: PC-3 prostate
LOX IMVI melanoma = tested on: LOX IMVI melanoma
M14 melanoma = tested on: M14 melanoma
CAKI-1 renal = tested on: CAKI-1 renal
HCT-116 colon = tested on: HCT-116 colon
SR leukemia = tested on: SR leukemia
HOP-92 NSCLC = tested on: HOP-92 NSCLC
COLO 205 colon = tested on: COLO 205 colon
U251 CNS = tested on: U251 CNS
DMS 273 small cell lung = tested on: DMS 273 small cell lung
DLD-1 colon = tested on: DLD-1 colon
SF-268 CNS = tested on: SF-268 CNS
RPMI-8226 leukemia = tested on: RPMI-8226 leukemia
SNB-19 CNS = tested on: SNB-19 CNS
MDA-MB-435 = tested on: MDA-MB-435
RXF 393 renal = tested on: RXF 393 renal
K-562 leukemia = tested on: K-562 leukemia
MCF7 breast = tested on: MCF7 breast
HCT-15 colon = tested on: HCT-15 colon
KM12 colon = tested on: KM12 colon
OVCAR-5 ovarian = tested on: OVCAR-5 ovarian
CCRF-CEM leukemia = tested on: CCRF-CEM leukemia
HCC-2998 colon = tested on: HCC-2998 colon
DU-145 prostate = tested on: DU-145 prostate
SK-MEL-28 melanoma = tested on: SK-MEL-28 melanoma
HL-60(TB) leukemia = tested on: HL-60(TB) leukemia
HOP-62 NSCLC = tested on: HOP-62 NSCLC
SN12K1 renal = tested on: SN12K1 renal
SK-MEL-5 melanoma = tested on: SK-MEL-5 melanoma
OVCAR-3 ovarian = tested on: OVCAR-3 ovarian
OVCAR-8 ovarian = tested on: OVCAR-8 ovarian
SNB-75 CNS = tested on: SNB-75 CNS
SK-OV-3 ovarian = tested on: SK-OV-3 ovarian
NCI-H226 lung = tested on: NCI-H226 lung
IGROV1 ovarian = tested on: IGROV1 ovarian
DMS 114 small cell lung = tested on: DMS 114 small cell lung
HS 578T breast = tested on: HS 578T breast
P388/ADR leukemia = tested on: P388/ADR leukemia
SW-620 colon = tested on: SW-620 colon
SF-295 CNS = tested on: SF-295 CNS
XF 498 CNS = tested on: XF 498 CNS
NCI-H460 lung = tested on: NCI-H460 lung
OVCAR-4 ovarian = tested on: OVCAR-4 ovarian
MALME-3M melanoma = tested on: MALME-3M melanoma
786-0 renal = tested on: 786-0 renal
HT29 colon = tested on: HT29 colon
KM20L2 colon = tested on: KM20L2 colon
M19-MEL melanoma = tested on: M19-MEL melanoma
EKVX NSCLC = tested on: EKVX NSCLC
UACC-62 melanoma = tested on: UACC-62 melanoma
MDA-N = tested on: MDA-N
NCI-H522 lung = tested on: NCI-H522 lung
A498 renal = tested on: A498 renal
SK-MEL-2 melanoma = tested on: SK-MEL-2 melanoma
TK-10 renal = tested on: TK-10 renal

With `O=C1N[C@@H]([C@H]2CC[C@H](Cl)CN2)C(=O)N[C@H]1[C@H]1CC[C@H](Cl)CN1` the TGI (HOP-18 NSCLC) was 139 µM, the TGI (MOLT-4 leukemia) was 13.3 µM and the TGI (A549 NSCLC) was 76.5 µM. The TGI (UACC-257 melanoma) was 15.1 µM, the TGI (P388 leukemia) was 20.3 µM and the TGI (NCI-H23 lung) was 8.76 µM. For the same compound, the TGI (SF-539 CNS) was 4.27 µM, the TGI (SN12C renal) was 18.9 µM and the TGI (SNB-78 CNS) was 87.8 µM. For the same compound, the TGI (ACHN renal) was 1.5 µM, the TGI (MDA-MB-231 breast) was 6.43 µM and the TGI (T-47D breast) was 56.1 µM. For the same compound, the TGI (NCI/ADR-RES ovarian) was 10.4 µM, the TGI (UO-31 renal) was 6.42 µM and the TGI (BT-549 breast) was 4.27 µM. For the same compound, the TGI (PC-3 prostate) was 18 µM, the TGI (LOX IMVI melanoma) was 2.6 µM and the TGI (M14 melanoma) was 2.3 µM. The TGI (CAKI-1 renal) was 3.06 µM, the TGI (HCT-116 colon) was 32.7 µM and the TGI (SR leukemia) was 6.18 µM. The TGI (HOP-92 NSCLC) was 7.95 µM, the TGI (COLO 205 colon) was 9.68 µM and the TGI (U251 CNS) was 12.3 µM. The TGI (DMS 273 small cell lung) was 7.35 µM, the TGI (DLD-1 colon) was 286 µM and the TGI (SF-268 CNS) was 51.5 µM. It also gave a TGI (RPMI-8226 leukemia) of 75.1 µM, a TGI (SNB-19 CNS) of 104 µM and a TGI (MDA-MB-435) of 32 µM. It also gave a TGI (RXF 393 renal) of 12.2 µM, a TGI (K-562 leukemia) of 227 µM and a TGI (MCF7 breast) of 7.25 µM. The TGI (HCT-15 colon) was 57.5 µM, the TGI (KM12 colon) was 19.1 µM and the TGI (OVCAR-5 ovarian) was 9.05 µM. It also gave a TGI (CCRF-CEM leukemia) of 33.4 µM, a TGI (HCC-2998 colon) of 6.42 µM and a TGI (DU-145 prostate) of 23.8 µM. The TGI (SK-MEL-28 melanoma) was 31.1 µM, the TGI (HL-60(TB) leukemia) was 0.426 µM and the TGI (HOP-62 NSCLC) was 4.04 µM. It also gave a TGI (SN12K1 renal) of 13.5 µM, a TGI (SK-MEL-5 melanoma) of 5.53 µM and a TGI (OVCAR-3 ovarian) of 7.61 µM. It also gave a TGI (OVCAR-8 ovarian) of 13.9 µM, a TGI (SNB-75 CNS) of 3.65 µM and a TGI (SK-OV-3 ovarian) of 2.31 µM. For the same compound, the TGI (NCI-H226 lung) was 11.6 µM, the TGI (IGROV1 ovarian) was 37.6 µM and the TGI (DMS 114 small cell lung) was 10.6 µM. For the same compound, the TGI (HS 578T breast) was 91.7 µM, the TGI (P388/ADR leukemia) was 23.1 µM and the TGI (SW-620 colon) was 29.4 µM. The TGI (SF-295 CNS) was 5.36 µM, the TGI (XF 498 CNS) was 0.819 µM and the TGI (NCI-H460 lung) was 2.88 µM. It also gave a TGI (OVCAR-4 ovarian) of 8.78 µM, a TGI (MALME-3M melanoma) of 8.59 µM and a TGI (786-0 renal) of 0.61 µM. For the same compound, the TGI (HT29 colon) was 32.1 µM, the TGI (KM20L2 colon) was 63.9 µM and the TGI (M19-MEL melanoma) was 23.5 µM. For the same compound, the TGI (EKVX NSCLC) was 19.2 µM, the TGI (UACC-62 melanoma) was 3.53 µM and the TGI (MDA-N) was 4.98 µM. The TGI (NCI-H522 lung) was 4.06 µM, the TGI (A498 renal) was 15.6 µM and the TGI (SK-MEL-2 melanoma) was 7.95 µM. It also gave a TGI (TK-10 renal) of 36.6 µM.
